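Test compounds were applied to cells in 96-well plates for 48 hours at 5 doses. TGI: total growth inhibition.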
What was measured:
Experiment in all cases: NCI tumour cell line growth inhibition, 48 h
SNB-19 CNS = test system: SNB-19 CNS
SF-539 CNS = test system: SF-539 CNS
NCI-H226 lung = test system: NCI-H226 lung
786-0 renal = test system: 786-0 renal
M14 melanoma = test system: M14 melanoma
U251 CNS = test system: U251 CNS
UACC-257 melanoma = test system: UACC-257 melanoma
UO-31 renal = test system: UO-31 renal
MCF7 breast = test system: MCF7 breast
OVCAR-8 ovarian = test system: OVCAR-8 ovarian

| Structure (SMILES) | TGI (SNB-19 CNS) | TGI (SF-539 CNS) | TGI (NCI-H226 lung) | TGI (786-0 renal) | TGI (M14 melanoma) | TGI (U251 CNS) | TGI (UACC-257 melanoma) | TGI (UO-31 renal) | TGI (MCF7 breast) | TGI (OVCAR-8 ovarian) |
| --- | --- | --- | --- | --- | --- | --- | --- | --- | --- | --- |
| CSCSSC | > 100 µM | > 100 µM | > 100 µM | > 100 µM | > 100 µM | > 100 µM | > 100 µM | > 100 µM | > 100 µM | > 100 µM |
| Cc1ccc(/C(O)=C/c2nc3ccccc3sc2=O)c(C)c1 | > 100 µM | > 100 µM | > 100 µM | > 100 µM | > 100 µM | > 100 µM | > 100 µM | > 100 µM | > 100 µM | > 100 µM |
| CC(C)=NN/C(=N\S(=O)(=O)c1ccc(Oc2cccc(Cl)c2C#N)cc1)Nc1ccc(Cl)cc1 | > 100 µM | – | > 100 µM | > 100 µM | > 100 µM | > 100 µM | > 100 µM | > 100 µM | > 100 µM | > 100 µM |
| O=C1C[C@@H](C(=O)OCc2ccccc2)NC(=O)C[C@@H](C(=O)OCc2ccccc2)NC(=O)C[C@@H](C(=O)OCc2ccccc2)N1 | > 100 µM | > 72.3 µM | > 100 µM | > 100 µM | > 100 µM | > 100 µM | > 100 µM | > 100 µM | > 100 µM | > 100 µM |
| O=[N+]([O-])c1ccc2sc(C=Nc3cnccn3)cc2c1 | > 100 µM | > 100 µM | – | > 100 µM | > 100 µM | > 100 µM | > 100 µM | > 100 µM | > 100 µM | > 100 µM |
| NCCCN(CCCN(C(=O)Nc1ccccc1)c1ccccc1)C(=O)Nc1ccccc1 | > 100 µM | – | > 100 µM | > 100 µM | 44.8 µM | > 100 µM | 43.1 µM | 65.8 µM | > 100 µM | > 100 µM |
| CCOC(=O)c1nc2ccc(C(F)(F)F)cc2nc1Oc1cc(OC)c(OC)c(OC)c1 | > 100 µM | > 100 µM | 81.9 µM | > 100 µM | > 100 µM | > 100 µM | > 100 µM | > 100 µM | > 100 µM | > 100 µM |
| O=C1CCCCCCCCCCC1CN1CCCC1 (stereo unspecified) | > 100 µM | 65.1 µM | > 100 µM | 44.7 µM | 47.2 µM | > 100 µM | 49.3 µM | > 100 µM | 50.3 µM | > 100 µM |
| O=C1NC(=O)C(C(CC(=O)c2ccc([N+](=O)[O-])cc2)c2ccccc2)C(=O)N1 (stereo unspecified) | > 100 µM | > 100 µM | > 100 µM | > 100 µM | > 100 µM | > 100 µM | > 100 µM | > 100 µM | 27 µM | > 100 µM |
| NC(=O)c1cccc([N+](=O)[O-])c1 | > 100 µM | > 100 µM | > 100 µM | > 100 µM | > 100 µM | > 100 µM | > 100 µM | > 100 µM | – | > 100 µM |
| CC(=O)N1CC(C)(C)c2c(C)c(O)c(C)c(C)c21 | > 100 µM | > 100 µM | > 100 µM | > 100 µM | > 100 µM | > 100 µM | > 100 µM | > 100 µM | > 100 µM | > 100 µM |
